According to PubChem BioAssay (NCI):
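Briefly, cells in 96-well plates were exposed to five compound concentrations for 48 h, and endpoints were estimated by linear interpolation. GI50: concentration for 50% inhibition of growth. TGI is the concentration that stops growth completely.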

Columns and labels:
Assay in all cases: DTP human tumour cell line panel, 48 h
[1] = system: COLO 205 colon
[2] = system: HCT-15 colon
[3] = system: NCI-H460 lung
[4] = system: RPMI-8226 leukemia
[5] = system: SK-MEL-5 melanoma
[6] = system: SNB-19 CNS
[7] = system: SR leukemia
[8] = system: DU-145 prostate
[9] = system: MDA-MB-231 breast
[10] = system: MDA-MB-435

| Compound | TGI [1] | TGI [2] | TGI [3] | TGI [4] | TGI [5] | TGI [6] | TGI [7] | GI50 [1] | GI50 [8] | TGI [8] | GI50 [2] | GI50 [9] | TGI [9] | GI50 [10] | TGI [10] | GI50 [3] | GI50 [4] | GI50 [5] | GI50 [6] |
| --- | --- | --- | --- | --- | --- | --- | --- | --- | --- | --- | --- | --- | --- | --- | --- | --- | --- | --- | --- |
| CN(C)CC/C(=N\Nc1ccc(Cl)c(Cl)c1)c1ccccc1 | 3.15 µM | 4.18 µM | 3.65 µM | 6.73 µM | 3.43 µM | 13.8 µM | 5.58 µM | – | – | – | – | – | – | – | – | – | – | – | – |
| Cc1ccc2c(Nc3cccc(Cl)c3F)ncc(NC(=O)c3csc4c(N)ncnc34)c2c1 | > 100 µM | > 100 µM | > 100 µM | > 100 µM | > 100 µM | > 100 µM | – | 0.0492 µM | > 100 µM | > 100 µM | > 100 µM | 0.164 µM | > 94 µM | 0.326 µM | > 100 µM | > 100 µM | 2.81 µM | > 100 µM | > 100 µM |
| COc1cc2ccnc(-c3c4ccccc4c(N)c4c(OC)c(OC)ccc34)c2cc1OC | 3.09 µM | – | 6.53 µM | – | 12.3 µM | 15.4 µM | 6.19 µM | – | – | – | – | – | – | – | – | – | – | – | – |
| Cc1ccc(S(=O)(=O)SCc2ccccc2CSS(=O)(=O)c2ccc(C)cc2)cc1 | 31.1 µM | 48.6 µM | > 100 µM | 43.1 µM | > 100 µM | > 100 µM | 43.5 µM | – | – | – | – | – | – | – | – | – | – | – | – |
| Cc1ccccc1NC(=O)C1C(=O)N(c2ccccc2C)C(=O)/C1=N\N (configuration not stated) | > 100 µM | > 100 µM | > 100 µM | > 100 µM | > 100 µM | > 100 µM | > 100 µM | – | – | – | – | – | – | – | – | – | – | – | – |
| O=C(Nc1ccccc1)NS(=O)(=O)c1ccc(N2N=C3c4ccccc4CC3C2c2ccccn2)cc1 (configuration not stated) | > 100 µM | > 100 µM | > 100 µM | > 100 µM | 47 µM | > 100 µM | – | 31.1 µM | 36.2 µM | > 100 µM | 23.1 µM | 19.8 µM | 60.8 µM | 21.4 µM | 54 µM | 38.5 µM | 27.1 µM | 23.6 µM | 83.9 µM |
